According to patent US6943195B2, “Cycloalkenone derivative” (Nikken Chemicals Co., Ltd, priority 2001, dated 2005):
pIC50: −log10 of the molar value.

Assays:
Type III PDE = biological target: T1, Type III PDE (Rattus norvegicus, UniProt Q62865); assay: PDE III inhibitory activity (Test Example 1); type: biochemical; settings: for pIC50: Table I, PDE III partially purified from rat blood platelets, 3H-cAMP substrate; for PDE III inhibitory activity relative to that of the racemate: ratio to racemate
T1 construct: from tissue; host or cells: rat blood platelets
T1 sequence (Q62865 1-1141): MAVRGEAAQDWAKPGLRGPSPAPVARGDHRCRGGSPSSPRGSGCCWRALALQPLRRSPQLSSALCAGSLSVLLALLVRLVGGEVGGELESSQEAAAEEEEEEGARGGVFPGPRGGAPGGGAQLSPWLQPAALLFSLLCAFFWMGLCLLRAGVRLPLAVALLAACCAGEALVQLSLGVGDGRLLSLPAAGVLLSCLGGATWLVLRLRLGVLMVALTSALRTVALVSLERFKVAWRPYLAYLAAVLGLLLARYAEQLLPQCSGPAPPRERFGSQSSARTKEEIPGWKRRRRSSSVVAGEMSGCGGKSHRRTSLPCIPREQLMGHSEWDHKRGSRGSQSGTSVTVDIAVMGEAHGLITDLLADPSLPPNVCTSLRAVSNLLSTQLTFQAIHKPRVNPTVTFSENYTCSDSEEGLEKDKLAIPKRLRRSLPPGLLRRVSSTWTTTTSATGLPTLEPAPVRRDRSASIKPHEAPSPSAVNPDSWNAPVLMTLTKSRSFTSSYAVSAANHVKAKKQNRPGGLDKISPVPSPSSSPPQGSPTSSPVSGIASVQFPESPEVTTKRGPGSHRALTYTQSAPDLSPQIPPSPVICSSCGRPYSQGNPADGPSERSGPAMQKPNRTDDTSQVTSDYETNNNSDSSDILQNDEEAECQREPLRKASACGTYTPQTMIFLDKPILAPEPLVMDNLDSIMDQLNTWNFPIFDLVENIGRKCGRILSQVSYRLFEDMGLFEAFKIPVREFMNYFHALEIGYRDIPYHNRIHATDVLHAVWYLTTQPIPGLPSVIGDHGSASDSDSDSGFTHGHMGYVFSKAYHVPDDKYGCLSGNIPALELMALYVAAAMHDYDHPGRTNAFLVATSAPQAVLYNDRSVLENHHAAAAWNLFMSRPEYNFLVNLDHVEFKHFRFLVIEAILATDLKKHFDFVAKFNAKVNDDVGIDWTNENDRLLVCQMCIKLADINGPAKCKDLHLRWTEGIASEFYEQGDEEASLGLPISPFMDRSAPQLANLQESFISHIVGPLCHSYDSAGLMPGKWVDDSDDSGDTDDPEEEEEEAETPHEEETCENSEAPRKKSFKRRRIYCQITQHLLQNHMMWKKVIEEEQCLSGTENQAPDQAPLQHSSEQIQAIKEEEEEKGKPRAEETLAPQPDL
Protocol: (§1) To investigate the PDE inhibitory activity and selectivity of the compound, Type I, Type III, Type IV and Type V, that is, four types of PDE isozymes were prepared Trends Pharmacol. Sci. (TiPS), vol. 12, 19-27(1991). The Type I PDE used was one purchased from Sigma. Further, the Type III, Type IV and Type V PDE isozymes used were those partially purified from the blood platelets (Type III and Type V) or neutrophils (Type IV) taken from rats. Each enzyme source was homogenized in a buffer (pH6.5) containing 20 mM Bis-Tris, EDTA (ethylene diamine tetraacetate) 2 mM, PMSF (phenylmethylsulfonyl fluoride) 0.1 mM, 2-mercaptoethanol 5 mM, pepstatin 0.001 mM, and leupeptin 0.01 mM and centrifuged at 30000×G for 30 minutes. The centrifuged supernatent was passed through an ion exchange column (Q Sepharose Fast Flow, made by Pharmacia) and eluted by 0-1M sodium acetate. The partially purified isozyme was identified by investigating the effects of known selective inhibitors.
(§2) The tested compound was dissolved in DMSO (dimethylsulfoxide) and added to 50 mM tris-HCl buffer containing 5 mM […]. To this reaction solution, the above PDE isozyme and ^3H-cAMP (when Type III or Type IV of PDE) or ^3H-cGMP (when Type I or Type V of PDE) was added, as a substrate, and the mixture reacted at 30° C. for 30 minutes. After the reaction, the reaction mixture was placed in a 100° C. boiling solution for 5 minutes to stop the reaction. The nucleotide produced by the PDE was decomposed by 5′-nucleotidase into ^3H-adenosine or ^3H-guanosine. The unreacted substrate and reaction product were passed through an ion exchange column (QAE Sephadex, made by Pharmacia)to separate them. The radioactivity of the eluted ^3H-nucleoside was measured by a liquid sintillation counter. The inhibitory activity of each tested compound was indicated by the IC50 value (μM). The inhibitory activity against Type IV was shown in Table 2, while the inhibitory activity against Type III was shown in Table 3. Further, the inhibitory activity of each test compound to Type I and Type V was less than 1/10 to Type IV.

Type IV PDE [1] = system: T2, Type IV PDE; assay: PDE IV inhibitory activity (Test Example 1); type: biochemical, rat; settings: for pIC50: 3H-cAMP substrate; for PDE IV inhibitory activity relative to that of the racemate: ratio to racemate
T2 construct: PDE IV partially purified from rat neutrophils, 3H-cAMP substrat; PDE IV from rat neutrophils, 3H-cAMP substrate; other: ratio to racemate
Protocol: as §1, §2

Type IV PDE [2] = assay: PDE IV inhibitory activity (Test Example 1); type: biochemical, rat; settings: PDE IV versus PDE III, compared with the racemate
Protocol: as §1, §2

[3] = Table I, PDE IV partially purified from rat neutrophils
[4] = Table II, PDE IV from rat neutrophils
[5] = listed as The compound of the present invention

SMILES | pIC50 (Type III PDE) | pIC50 (Type IV PDE [1]; [3]) | pIC50 (Type IV PDE [1]; [4]) | PDE III inhibitory activity relative to that of the racemate (Type III PDE) | selectivity with respect to PDE IV (Type IV PDE [2]) | PDE IV inhibitory activity relative to that of the racemate (Type IV PDE [1]) | PDE III inhibitory activity relative to that of the racemate (Type III PDE; [5]) | PDE IV inhibitory activity relative to that of the racemate (Type IV PDE [1]; [5])
COc1ccc(NC2=C(C)C(=O)CC2)cc1O[C@@H]1C[C@H]2CC[C@@H]1C2 (racemic) [(±)-isomer, (±)-3-[3-[(1RS,2RS,4SR)-bicyclo[2.2.1]hept-2-yloxy]-4-methoxyanilino]-2-methyl-2-cyclopenten-1-one, reference compound] | 5.41 | 6.57 | 6.57 |  |  |  |  | 
COc1ccc(NC2=C(C)C(=O)CC2)cc1O[C@H]1C[C@@H]2CC[C@H]1C2 [(+)-isomer, (+)-3-[3-[(1S,2S,4R)-bicyclo[2.2.1]hept-2-yloxy]-4-methoxyanilino]-2-methyl-2-cyclopenten-1-one] | 5.80 | 6.44 | 6.44 | twice or more of that of the racemate | low | about ¾ |  | 
COc1ccc(NC2=C(C)C(=O)CC2)cc1O[C@@H]1C[C@H]2CC[C@@H]1C2 [(−)-isomer, (−)-3-[3-[(1R,2R,4S)-bicyclo[2.2.1]hept-2-yloxy]-4-methoxyanilino]-2-methyl-2-cyclopenten-1-one] | 5.04 | 6.92 | 6.92 | less than half of that of the racemate | high | about twice that of the racemate | less than ½ | at least two times that of a racemate
